How the values were obtained:
Assay type in all cases: cell-based, human
DMVEC = test: Uptake, distribution and persistence of FITC-labeled PMO antisense; conditions: 3 hours after loading, FITC-labeled PMO with EPEI
From the text: (§1) Introduction of antisense PMO into KSHV-infected DMVEC. Antisense PMO molecules, for delivery purposes, are typically converted to a paired duplex together with a partially complementary cDNA oligonucleotide in the weakly basic delivery reagent ethoxylated polyethylenimine (EPEI) (Summerton, supra). The anionic complex binds to the cell surface, is taken up by endocytosis and eventually released into the cytosol. A protocol for optimum uptake of antisense PMO in immortalized DMVEC was developed using a modification of the EPEI method. Briefly, uninfected, immortalized DMVECs were incubated for 3 hours at 37° C. with 0.6 nmol/well FITC-PMO complexed with EPEI according to the manufacturer's instructions (GeneTools, LLC, One Summerton Way, Philomath, Oreg. 97370) (e.g., 1.25 nMol oligomer with 2.5 μl EPEI reagent per 35 mm dish, allowing for sufficient antisense uptake without non-specific EPEI-induced toxicity). The PMOs were labeled with FITC to allow for monitoring of loading efficiency by fluorescence microscopy.
Cellular distribution of introduced FITC-labeled PMO antisense molecules. […]
Therefore, the introduced PMO antisense oligomers were determined to be stable over substantial time periods in DMVEC. […] Moreover, the PMO oligomers were readily taken up by DMVEC and distributed within the cytosol.

KSHV-infected DMVEC [1] = test: Morpholino treatment and focus inhibition assay (Example 5); conditions: for Foci/spindle morpholigical inhibition: PMO-treated KSHV-infected DMVEC vs control PMO, repeated three times; for effect on phenotype (foci, spindle shape) in focus-inhibition assay (in words): PMO-AS, KSHV-infected DMVEC, 5-10 days
Protocol: Morpholino Treatment and Focus Inhibition Assay. Phosphorodiamidate morpholino antisense oligonucleotides (PMO-AS) were designed and synthesized by Gene Tools LLC (Philomath, Oreg.) as a Special Delivery formulation, which pairs the morpholino with a partially complementary DNA oligo. A weakly basic delivery agent, Ethoxylated Polyethlyenimine (EPEI) is then used to deliver the anionic morpholino/DNA duplex into the cytosol. PMO-AS were received as sterile, lyophilized solids ([…]) that were solubilized in sterile water to obtain 0.5 mM stock solutions. To load a 35 mm dish of DMVEC at 90% confluence, 5 microl of stock solution was mixed with 5 microl of EPEI delivery solution in 590 μl H20 for 20 minutes at room temperature, and then mixed with 1.5 ml of serum-free RPMI medium. Endothelial growth media was removed from DMVEC, and replaced with the PMO-AS:EPEI:RPMI delivery solution for 3 hours in a 37° C. incubator. After incubation, cells were rinsed, complete endothelial growth medium was added and cells were cultured for up to 10 days without sub-culture, with media replacement every 48-72 hours. This protocol allows for the characteristic post-confluent growth and development of multi-layered spindle-cell aggregates (foci) in KSHV-infected cultures. Cells were monitored daily under the phase microscope to evaluate PMO-AS-inhibition of the development of these foci. At the conclusion of an assay, cells were fixed in 2% paraformaldehyde and stained with a MAB against CD31 (Dako; 1:100) followed by a goat-anti-mouse FITC second conjugate. Junctional staining of cells with CD31 accentuated the disorganized multi-layered nature of the spindle cell aggregates as composed to the flat, organized profile of contact-inhibited cells.
For these assays, KSHV-infected DMVEC monolayers were cultured to 90% confluence and then loaded with each PMO-AS, or maintained as unloaded controls. Cultures were observed daily until control cultures had developed prominent multi-layered aggregates of spindle cells. Typically this took 5-10 days with some variation between replicate experiments. Each experiment was performed at least three times and was performed with mock-infected as well as KSHV-infected DMVEC. As expected, mock-infected DMVEC maintained a quiescent monolayer at confluence, and PMO-AS treatment of uninfected cells occurred without any adverse effect. This observation allowed verification that none of the gene knockdown treatments induced non-specific toxicity in DMVEC. The majority of tested PMO-AS had no effect on the ability of KSHV-infected DMVEC to grow post-confluence and form disorganized, multi-layered foci (TABLE 2).

KSHV-infected DMVEC [2] = test: XTT proliferation assay of PMO-loaded KSHV-infected DMVEC (Example 3); conditions: PMO antisense silencing
Protocol: Proliferation assays, and loading of cells with PMOs. Proliferation of KSHV-infected DMVEC was quantified using an XTT (2,3-bis-(2-methoxy-4-nitro-5-sulfophenyl)-2H-tetrazolium-5-carboxanilide, disodium salt)-based assay. KSHV-infected cells were added to Primaria 96-well trays (Becton Dickinson) at 1×10^4 or 5×10^4 cells/well. XTT (Roche, Molecular Biochemicals, Indianapolis, Ind.) was added 48 hours later according to the manufacturer's instructions. Absorbance was read after 4 to 6 hours on a microplate reader.
Briefly, cells were plated in 96-well trays at a density approaching confluence (5×10^4 cells per well) in 100 μl of complete medium. PMOs were loaded the following day in a total of 100 μl (0.5 μl PMO, 0.5 μl EPEI, 49 μl H2O and 50 μl serum free medium) with reagent mixing as described by the manufacturer (GeneTools). Controls included a FITC PMO control oligonucleotide, EPEI only or H2O only. Each variable was performed in quadruplicate. Fresh complete medium was replaced 4 hours after loading. Cells were cultured for 4 days to allow for multi-layered cell growth post-confluence in the absence of any growth inhibition. XTT was added on day 4 of culture and the absorbance read 4 hrs later on a microplate reader. Cell proliferation (growth) values are given as percentage inhibition values, relative to cells without PMO, which are adjusted to 100%.

KSHV-infected DMVEC [3] = test: PMO antisense inhibition of KSHV-induced spindle cell and foci formation (Example 3); conditions: for Extent of PMO-induced Inhibition of Spindle Cell Formation: KSHV-infected DMVEC loaded with gene-specific PMO antisense + EPEI; for Phenotype Inhibition (inhibition of spindle cell formation) / KSHV-induced spindle cell / foci formation (in words): KSHV-infected DMVEC; for Phenotype Inhibition (inhibition of spindle cell formation): gene-specific PMO antisense; for KSHV-induced spindle cell / foci formation (in words): PMO antisense, c-Kit: 1.25 nmol PMO + 2.5 μl EPEI per 35 mm dish
From the text: Antisense Gene Silencing using PMOs. […] Silencing of such genes precluded progression into the transformed phenotype when silencing occurred prior to transformation, or induced reversion to the normal state when silencing occurred after induction of the transformed state (see TABLE 2 below).
as §1
Specifically, DMVEC were infected with KSHV, plated in 35 mm dishes and allowed to grow to about 90% confluence. For treatment, KSHV-infected cells were treated with the anti-c-Kit PMO-antisense oligomer-EPEI delivery reagent complex and incubated for 3 hours at 37° C. in serum-free medium to allow for oligomer uptake. A titration experiment testing a range of different oligomer/EPEI volumes was used to determine that loading 1.25 nmol oligomer with 2.5 μl EPEI reagent per 35 mm dish allowed efficient antisense uptake without non-specific EPEI-induced toxicity. Control (mock-treated) DMVEC cultures were loaded with EPEI reagent and sterile water or sterile water alone. Upon removal of the oligomer-EPEI solution, cell monolayers were rinsed in serum-free medium fed with complete medium and examined daily for one week by phase microscopy for evidence of phenotypic change.

Row | Substance | cells with FITC-PMO concentrated in intracellular vesicles (endosomes) (DMVEC) | Foci/spindle morpholigical inhibition (KSHV-infected DMVEC [1]) | inhibition of KSHV-induced cellular proliferation (in words) (KSHV-infected DMVEC [2]) | Extent of PMO-induced Inhibition of Spindle Cell Formation (KSHV-infected DMVEC [3]) | Phenotype Inhibition (inhibition of spindle cell formation) (KSHV-infected DMVEC [3]) | KSHV-induced spindle cell / foci formation (in words) (KSHV-infected DMVEC [3]) | KSHV-induced spindle cell / foci formation (in words) (KSHV-infected DMVEC [3]; listed as c-Kit) | effect on phenotype (foci, spindle shape) in focus-inhibition assay (in words) (KSHV-infected DMVEC [1])
1 | KIT: FITC-labeled PMO targeting the start codon of c-Kit, CGCCTCTCATCGCGGTAGCTGCG (SEQ ID NO:21) (all phosphorodiamidate morpholino (PMO); FITC label attached, position not given here) | about 70% | Full | substantial inhibition | full | Full | fully reversed spindle cell formation | did not develop foci | –
2 | Neuritin: PMO antisense to Neuritin, TTAACTCCCATCCTACGTTTAGTCA (SEQ ID NO:19) (all phosphorodiamidate morpholino (PMO); delivered paired with partially complementary DNA oligo (Special Delivery)) | – | Full | substantial inhibition | full | Full | fully reversed spindle cell formation | – | dramatic effect on phenotype
3 | RDC-1: PMO antisense to RDC-1, GAAGAGATGCAGATCCATCGTTCTG (SEQ ID NO:15) (all phosphorodiamidate morpholino (PMO); delivered paired with partially complementary DNA oligo (Special Delivery)) | – | Full | substantial inhibition | full | full and Full | fully reversed spindle cell formation | – | dramatic effect on phenotype

From patent US20070072209A1, “Methods of treatment and diagnosis of Kaposi's sarcoma (KS) and KS related diseases” (priority 2005, published 2007)
